Assay results reported in publication PMC9279627 (Acta Pharmaceutica Sinica. B, 2021).

Experiments:
CYP2C9 [1] = biological target: T1, CYP2C9 (Homo sapiens, UniProt P11712); type: biochemical; conditions: for Modulation of CYP2C9 activity in visual high-throughput screen: clinical drugs 10 μmol/L, DDAM 10 μmol/L, HLM, 96-well microplate; for Concentration-dependent inhibitory effect toward CYP2C9: 0.1, 0.5, 1, 10 and 20 μmol/L, DDAM, Fig. 4B
[2] = tested on: CYP2J2 in HeLa and HepG2 cells; assay: Confocal fluorescence imaging of CYP2J2 activity by MXMB in living cells; type: cell-based, human; conditions: Fig. S13
CYP2C9 [3] = biological target: T1, CYP2C9; conditions: DDAM 10 μmol/L, Fig. S6

T1 sequence (P11712 whole entry): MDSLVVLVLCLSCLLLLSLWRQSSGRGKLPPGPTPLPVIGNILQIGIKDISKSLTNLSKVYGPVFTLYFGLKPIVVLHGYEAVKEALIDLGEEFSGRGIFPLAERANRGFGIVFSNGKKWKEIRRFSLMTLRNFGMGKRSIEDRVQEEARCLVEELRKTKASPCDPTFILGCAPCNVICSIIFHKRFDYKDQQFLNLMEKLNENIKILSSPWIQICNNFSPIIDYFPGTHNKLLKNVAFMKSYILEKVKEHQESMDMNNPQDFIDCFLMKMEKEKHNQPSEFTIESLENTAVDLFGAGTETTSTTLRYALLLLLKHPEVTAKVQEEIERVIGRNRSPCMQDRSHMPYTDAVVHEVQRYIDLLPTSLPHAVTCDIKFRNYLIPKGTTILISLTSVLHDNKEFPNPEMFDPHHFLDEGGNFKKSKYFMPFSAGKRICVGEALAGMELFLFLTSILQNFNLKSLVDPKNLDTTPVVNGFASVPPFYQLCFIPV

Modulation of CYP2C9 activity in visual high-throughput screen (CYP2C9 [1]) | SMILES | also measured
– | CCCCCCCCCCCc1cc(=O)c2ccccc2n1C [1-methyl-2-undecyl-4(1H) quinolone] | Inhibitor of CYP2C9 identified from E. rutaecarpa extract (CYP2C9 [1]; DDAM fluorescence assay, pre-HPLC fractions): novel inhibitor
– | C#C[C@]1(O)CC[C@H]2[C@@H]3CCC4=Cc5oncc5C[C@]4(C)[C@H]3CC[C@@]21C [danazol] | Effect of pre-treatment on intracellular fluorescence of MXMB [2]: remarkable suppression of intracellular fluorescence
activators | Nc1ccc(S(=O)(=O)c2ccc(N)cc2)cc1 [dapsone] | –
activators | NCCc1ccc(O)c(O)c1 [dopamine] | –
activators | C[C@]12CC[C@@H]3c4ccc(O)cc4CC[C@H]3[C@@H]1CC[C@@H]2O [estradiol] | –
activators | Cc1c(OCC(F)(F)F)ccnc1C[S+]([O-])c1nc2ccccc2[nH]1 (stereo not shown) [lansoprazole] | –
activators | COC(=O)Nc1nc2ccc(C(=O)c3ccccc3)cc2[nH]1 [mebendazole] | –
strong inhibitors | Clc1ccc(COC(Cn2ccnc2)c2ccc(Cl)cc2Cl)c(Cl)c1 (stereo not shown) [miconazole] | Concentration-dependent inhibitory effect toward CYP2C9 (CYP2C9 [1]): significant inhibitory effect
activators | COc1ccc2[nH]c([S+]([O-])Cc3ncc(C)c(OC)c3C)nc2c1 (stereo not shown) [omeprazole] | –
activators | COc1ccnc(C[S+]([O-])c2nc3ccc(OC(F)F)cc3[nH]2)c1OC (stereo not shown) [pantoprazole] | –
strong inhibitors | O=C(c1ccc(OCCN2CCCCC2)cc1)c1c(-c2ccc(O)cc2)sc2cc(O)ccc12 [raloxifene] | Concentration-dependent inhibitory effect toward CYP2C9 (CYP2C9 [1]): significant inhibitory effect
strong inhibitors | Nc1ccc(S(=O)(=O)Nc2ccnn2-c2ccccc2)cc1 [sulfaphenazole] | Effect on demethylation of DDAM (CYP2C9 [3]): inhibited; Concentration-dependent inhibitory effect toward CYP2C9 (CYP2C9 [1]): significant inhibitory effect
